Reference: US11708348B2, “Protease inhibitors for treatment of coronavirus infections” (The Scripps Research Institute, priority 2021, dated 2023)
Read-outs that look alike come from different tables or passages of the source.

Tested on: SARS-CoV-2 strain USA-WA1/2020
Assay: microbe, parasite or virus in culture
Type: cell-based
Details: Severe acute respiratory syndrome coronavirus 2, HeLa-ACE2, 24 h, HeLa-ACE2 cells, SARS-CoV-2 infection, 24 h, read-out: EC50, uM (Hela)

## C[C@@](O)(C(=O)N1CC2(CC2)C[C@H]1C(=O)N[C@@H](C[C@@H]1CCNC1=O)C(=O)COC(F)(F)F)c1ccccc1 [Compound 364, (S)-5-((S)-2-hydroxy-2-phenylpropanoyl)-N-((S)-3-oxo-1-((S)-2-oxopyrrolidin-3-yl)-4-(trifluoromethoxy)butan-2-yl)-5-azaspiro[2.4]-heptane-6-carboxamide]
Class symbols
  EC50: < 0.05 µM

## C[C@](O)(C(=O)N1CC2(CC2)C[C@H]1C(=O)N[C@@H](C[C@@H]1CCNC1=O)C(=O)COC(F)(F)F)c1ccccc1 [Compound 365, (S)-5-((R)-2-hydroxy-2-phenylpropanoyl)-N-((S)-3-oxo-1-((S)-2-oxopyrrolidin-3-yl)-4-(trifluoromethoxy)butan-2-yl)-5-azaspiro[2.4]-heptane-6-carboxamide]
Class symbols
  EC50: < 0.05 µM

## CC[C@](C)(O)C(=O)N1C[C@H]2[C@@H]([C@H]1C(=O)N[C@@H](C[C@@H]1CCNC1=O)C(=O)COC(F)(F)F)C2(C)C [Compound 367, (1R,2S,5S)-3-((S)-2-hydroxy-2-methylbutanoyl)-6,6-dimethyl-N-((S)-3-oxo-1-((S)-2-oxopyrrolidin-3-yl)-4-(trifluoromethoxy)butan-2-yl)-3-azabicyclo[3.1.0]-hexane-2-carboxamide]
Bound printed in cell
  EC50: > 1 µM

## CC[C@@H](O)C(=O)N1C[C@H]2[C@@H]([C@H]1C(=O)N[C@@H](C[C@@H]1CCNC1=O)C(=O)COC(F)(F)F)C2(C)C [Compound 368, (1R,2S,5S)-3-((R)-2-hydroxybutanoyl)-6,6-dimethyl-N-((S)-3-oxo-1-((S)-2-oxopyrrolidin-3-yl)-4-(trifluoromethoxy)butan-2-yl)-3-azabicyclo[3.1.0]= hexane-2-carboxamide]
Class symbols
  EC50: 0.05 to 0.2 µM

## CC[C@@H](O)C(=O)N[C@@H](CC(C)C)C(=O)N[C@@H](C[C@@H]1CCNC1=O)C(=O)COC(F)(F)F [Compound 369, (S)-2-((R)-2-hydroxybutanamido)-4-methyl-N-((S)-3-oxo-1-((S)-2-oxopyrrolidin-3-yl)-4-(trifluoromethoxy)butan-2-yl)pentanamide]
Class symbols
  EC50: 0.05 to 0.2 µM

## CC[C@H](O)C(=O)N1C[C@H]2[C@@H]([C@H]1C(=O)N[C@@H](C[C@@H]1CCNC1=O)C(=O)COC(F)(F)F)C2(C)C [Compound 370, (1R,2S,5S)-3-((S)-2-hydroxybutanoyl)-6,6-dimethyl-N-((S)-3-oxo-1-((S)-2-oxopyrrolidin-3-yl)-4-(trifluoromethoxy)butan-2-yl)-3-azabicyclo[3.1.0]-hexane-2-carboxamide]
Class symbols
  EC50: 0.05 to 0.2 µM

## CC[C@@H](O)C(=O)N1CC2(CC2)C[C@H]1C(=O)N[C@@H](C[C@@H]1CCNC1=O)C(=O)COC(F)(F)F [Compound 371, (S)-5-((R)-2-hydroxybutanoyl)-N-((S)-3-oxo-1-((S)-2-oxopyrrolidin-3-yl)-4-(trifluoromethoxy)butan-2-yl)-5-azaspiro[2.4]heptane-6-carboxamide]
Class symbols
  EC50: 0.05 to 0.2 µM

## CC[C@@H](O)C(=O)NC(CC1(C)CC1)C(=O)N[C@@H](C[C@@H]1CCNC1=O)C(=O)COC(F)(F)F (stereo partly drawn) [Compound 372, (2R)-2-hydroxy-N-(3-(1-methylcyclopropyl)-1-oxo-1-(((S)-3-oxo-l-((S)-2-oxopyrrolidin-3-yl)-4-(trifluoromethoxy)butan-2-yl)amino)propan-2-yl)butanamide]
Class symbols
  EC50: 0.2 to 0.5 µM

## CC[C@@H](O)C(=O)N1[C@H](C(=O)N[C@@H](C[C@@H]2CCNC2=O)C(=O)COC(F)(F)F)C[C@@H]2CCCC[C@@H]21 [Compound 373, (2S,3aS,7aS)-1-((R)-2-hydroxybutanoyl)-N-((S)-3-oxo-1-((S)-2-oxopyrrolidin-3-yl)-4-(trifluoro-methoxy)butan-2-yl)octahydro-1H-indole-2-carboxamide]
Class symbols
  EC50: 0.2 to 0.5 µM

## CC[C@@H](O)C(=O)N1[C@H](C(=O)N[C@@H](C[C@@H]2CCNC2=O)C(=O)COC(F)(F)F)C[C@@H]2CCC[C@@H]21 [Compound 374, (2S,3aS,6aS)-1-((R)-2-hydroxybutanoyl)-N-((S)-3-oxo-1-((S)-2-oxopyrrolidin-3-yl)-4-(trifluoromethoxy)butan-2-yl)octahydrocyclo-penta[b]pyrrole-2-carboxamide]
Class symbols
  EC50: 0.5 to 1 µM

## CC[C@@H](O)C(=O)N[C@H](CC1(C)CC1)C(=O)N[C@@H](C[C@@H]1CCNC1=O)C(=O)COC(F)(F)F [Compound 375, (R)-2-hydroxy-N-((R)-3-(l-methylcyclopropyl)-1-oxo-1-(((S)-3-oxo-l-((S)-2-oxopyrrolidin-3-yl)-4-(trifluoromethoxy)butan-2-yl)amino)propan-2-yl)butanamide]
Class symbols
  EC50: 0.05 to 0.2 µM

## CC[C@@H](O)C(=O)N[C@@H](CC1(C)CC1)C(=O)N[C@@H](C[C@@H]1CCNC1=O)C(=O)COC(F)(F)F [Compound 376, (R)-2-hydroxy-N-((S)-3-(1-methylcyclopropyl)-1-oxo-1-(((S)-3-oxo-l-((S)-2-oxopyrrolidin-3-yl)-4-(trifluoromethoxy)butan-2-yl)amino)propan-2-yl)butanamide]
Bound printed in cell
  EC50: > 1 µM

## CC[C@@H](O)C(=O)N1C[C@@H]2CCC[C@@H]2[C@H]1C(=O)N[C@@H](C[C@@H]1CCNC1=O)C(=O)COC(F)(F)F [Compound 377, (1S,3aR,6aS)-2-((R)-2-hydroxybutanoyl)-N-((S)-3-oxo-1-((S)-2-oxopyrrolidin-3-yl)-4-(trifluoromethoxy)butan-2-yl)octahydrocyclo-penta[c]pyrrole-1-carboxamide]
Class symbols
  EC50: 0.05 to 0.2 µM

## CCC[C@@H](O)C(=O)N1C[C@H]2[C@@H]([C@H]1C(=O)N[C@@H](C[C@@H]1CCNC1=O)C(=O)COC(F)(F)F)C2(C)C [Compound 378, (1R,2S,5S)-3-((R)-2-hydroxypentanoyl)-6,6-dimethyl-N-((S)-3-oxo-1-((S)-2-oxopyrrolidin-3-yl)-4-(trifluoromethoxy)butan-2-yl)-3-azabicyclo[3.1.0]-hexane-2-carboxamide]
Class symbols
  EC50: < 0.05 µM

## CC[C@@H](C)[C@@H](O)C(=O)N1C[C@@H]2CCC[C@@H]2[C@H]1C(=O)N[C@@H](C[C@@H]1CCNC1=O)C(=O)COC(F)(F)F [Compound 379, (1S,3aR,6aS)-2-((2R,3R)-2-hydroxy-3-methylpentanoyl)-N-((S)-3-oxo-1-((S)-2-oxopyrrolidin-3-yl)-4-(trifluoromethoxy)butan-2-yl)octahydrocyclo-penta[c]pyrrole-1-carboxamide]
Class symbols
  EC50: < 0.05 µM

## CC[C@@H](C)[C@@H](O)C(=O)N1CC2(CC2)C[C@H]1C(=O)N[C@@H](C[C@@H]1CCNC1=O)C(=O)COC(F)(F)F [Compound 380, (S)-5-((2R,3R)-2-hydroxy-3-methylpentanoyl)-N-((S)-3-oxo-1-((S)-2-oxopyrrolidin-3-yl)-4-(trifluoromethoxy)butan-2-yl)-5-azaspiro[2.4]-heptane-6-carboxamide]
Class symbols
  EC50: 0.05 to 0.2 µM

## CO[C@H](CC(C)C)C(=O)N1CC2(CC2)C[C@H]1C(=O)N[C@@H](C[C@@H]1CCNC1=O)C(=O)COC(F)(F)F [Compound 381, (S)-5-((R)-2-methoxy-4-methylpentanoyl)-N-((S)-3-oxo-1-((S)-2-oxopyrrolidin-3-yl)-4-(trifluoromethoxy)butan-2-yl)-5-azaspiro[2.4]heptane-6-carboxamide]
Class symbols
  EC50: < 0.05 µM

## COc1ccccc1[C@@H](O)C(=O)N1C[C@H]2[C@@H]([C@H]1C(=O)N[C@@H](C[C@@H]1CCNC1=O)C(=O)COC(F)(F)F)C2(C)C [Compound 382, (1R,2S,5S)-3-((R)-2-hydroxy-2-(2-methoxyphenyl)acetyl)-6,6-dimethyl-N-((S)-3-oxo-1-((S)-2-oxopyrrolidin-3-yl)-4-(trifluoromethoxy)butan-2-yl)-3-azabicyclo-[3.1.0]hexane-2-carboxamide]
Class symbols
  EC50: < 0.05 µM

## Cn1cncc1C(O)C(=O)N1CC2(CC2)C[C@H]1C(=O)N[C@@H](C[C@@H]1CCNC1=O)C(=O)COC(F)(F)F (stereo partly drawn) [Compound 383, (6S)-5-(2-hydroxy-2-(1-methyl-1H-imidazol-5-yl)acetyl)-N-((S)-3-oxo-1-((S)-2-oxopyrrolidin-3-yl)-4-(trifluoromethoxy)butan-2-yl)-5-azaspiro[2.4]heptane-6-carboxamide]
Bound printed in cell
  EC50: > 1 µM

## CC(C)C[C@H](NC(=O)[C@H](O)C(F)(F)F)C(=O)N[C@@H](C[C@@H]1CCNC1=O)C(=O)COC(F)(F)F [Compound 384, (S)-4-methyl-N-((S)-3-oxo-1-((S)-2-oxopyrrolidin-3-yl)-4-(trifluoromethoxy)butan-2-yl)-2-((S)-3,3,3-trifluoro-2-hydroxypropanamido)-pentanamide]
Class symbols
  EC50: 0.05 to 0.2 µM

## O=C1NCC[C@H]1C[C@H](NC(=O)[C@@H]1CC2(CC2)CN1C(=O)[C@H](O)C(F)(F)F)C(=O)COC(F)(F)F [Compound 385, (S)-N-((S)-3-oxo-1-((S)-2-oxopyrrolidin-3-yl)-4-(trifluoromethoxy)butan-2-yl)-5-((S)-3,3,3-trifluoro-2-hydroxypropanoyl)-5-azaspiro[2.4]heptane-6-carboxamide]
Class symbols
  EC50: 0.05 to 0.2 µM

## CC1(C)[C@@H]2[C@@H](C(=O)N[C@@H](C[C@@H]3CCNC3=O)C(=O)COC(F)(F)F)N(C(=O)[C@H](O)C(F)(F)F)C[C@@H]21 [Compound 386, (1R,2S,5S)-6,6-dimethyl-N-((S)-3-oxo-1-((S)-2-oxopyrrolidin-3-yl)-4-(trifluoromethoxy)butan-2-yl)-3-((S)-3,3,3-trifluoro-2-hydroxypropanoyl)-3-azabicyclo[3.1.0]-hexane-2-carboxamide]
Class symbols
  EC50: 0.05 to 0.2 µM

## O=C1NCC[C@H]1C[C@H](NC(=O)[C@@H]1CC2(CC2)CN1C(=O)[C@@H](O)C(F)(F)F)C(=O)COC(F)(F)F [Compound 387, (S)-N-((S)-3-oxo-1-((S)-2-oxopyrrolidin-3-yl)-4-(trifluoromethoxy)butan-2-yl)-5-((R)-3,3,3-trifluoro-2-hydroxypropanoyl)-5-azaspiro[2.4]-heptane-6-carboxamide]
Class symbols
  EC50: 0.05 to 0.2 µM
